# From US10988523B2, “Modified lipidated Relaxin B chain peptides and their therapeutic use” (Sanofi, priority 2018, dated 2021)
# *1 amine or outer side, *2 acyl side, *3 side chain or, on linkers, in order; H or OH if unused. Where a SMILES comes first, the peptide text is derived from it. Side-chain parts run from the residue outwards. [ ]: non-standard residue; d: D form. The star is where a group is joined. X16 = CCCCCCCCCCCCCCCCCC(=O)N[C@@H](CCC(=O)N[C@@H](CCC(=O)N[C@@H](CCC(=O)NCCCOCCOCCOCCCNC(=O)COCC(=O)*)C(=O)O)C(=O)O)C(=O)O; PEG12 = NCCOCCOCCOCCOCCOCCOCCOCCOCCOCCOCCOCCOCCC(=O)O; Lys(Me3) = C[N+](C)(C)CCCC[C@H](N)C(=O)O; γGlu = O=C(O)[C@H](CCC(=O)[*:2])N[*:1]; 1Nal = N[C@@H](Cc1cccc2ccccc12)C(=O)O; Stearoyl = CCCCCCCCCCCCCCCCCC(=O)*; Palmitoyl = CCCCCCCCCCCCCCCC(=O)*; αMeK = C[C@](N)(CCCCN)C(=O)O; Lauroyl = CCCCCCCCCCCC(=O)*; Nle = CCCC[C@H](N)C(=O)O; AEEA = NCCOCCOCC(=O)O; Aib = CC(C)(N)C(=O)O
# Molecular target: T1, RXFP1 (Homo sapiens, UniProt Q9HBX9)
# T1 construct: OVCAR5 cells expressing endogenous RXFP1; endogenous in cells; host or cells: OVCAR5 cells
# T1 sequence (Q9HBX9 1-757): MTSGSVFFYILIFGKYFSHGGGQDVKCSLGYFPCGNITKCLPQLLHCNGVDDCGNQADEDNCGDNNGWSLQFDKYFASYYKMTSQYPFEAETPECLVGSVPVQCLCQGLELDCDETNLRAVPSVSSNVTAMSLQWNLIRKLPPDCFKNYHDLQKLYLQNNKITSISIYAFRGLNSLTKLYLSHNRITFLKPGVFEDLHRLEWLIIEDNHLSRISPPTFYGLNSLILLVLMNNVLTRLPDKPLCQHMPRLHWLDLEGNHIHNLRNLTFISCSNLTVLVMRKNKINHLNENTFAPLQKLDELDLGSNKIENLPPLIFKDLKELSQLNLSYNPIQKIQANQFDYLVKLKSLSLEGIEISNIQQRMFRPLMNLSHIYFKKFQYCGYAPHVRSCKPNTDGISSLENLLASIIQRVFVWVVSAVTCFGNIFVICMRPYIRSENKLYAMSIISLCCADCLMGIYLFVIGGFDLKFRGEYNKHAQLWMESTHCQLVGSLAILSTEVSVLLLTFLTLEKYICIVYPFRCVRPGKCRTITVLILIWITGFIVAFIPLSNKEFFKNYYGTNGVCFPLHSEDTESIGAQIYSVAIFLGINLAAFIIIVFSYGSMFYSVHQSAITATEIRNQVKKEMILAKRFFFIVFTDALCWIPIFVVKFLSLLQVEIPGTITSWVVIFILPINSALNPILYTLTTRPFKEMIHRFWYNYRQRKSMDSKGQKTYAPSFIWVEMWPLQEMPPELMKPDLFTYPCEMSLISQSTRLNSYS
# Assay: OVCAR5 cAMP assay (HTRF), RXFP1 agonist activity
# Assay type: cell-based
# Settings: for Emax: OVCAR-5, maximal cAMP relative to H2-relaxin maximum (100%), read-out: EMax, OVCAR 5 cells (cAMP); for EC50: OVCAR5 cells, cAMP HTRF, read-out: EC50 (nM), OVCAR 5 cells (cAMP)
# Text: OVCAR5 cells expressing endogenous RXFP1 were used to test RXP1 agonist properties of peptides of the invention, and in particular of the peptides of sequence SEQ ID NO: 1-193.
# Since RXFP1 is a Gs coupled GPCR, cAMP was used as readout of RXFP1 activation.
# Isobutyl Methyl Xanthine (IBMX) was used to inhibit phosphodiesterase activity facilitating cAMP measurements. HTRF (Homogenous Time Resolved Fluorescence) technology was used to detect cAMP due to its great sensitivity.
# In summary, OVCAR5 were grown in regular medium (RPMI) containing 10% fetal calf serum (FCS) and 1% antibiotics (penicillin/streptomycin).
# Before the experiments, cells were detached with accutase and incubated for 40 minutes at 37° C. with 1 mM (3-isobutyl-1-methylxanthine) IBMX.
# Cells were then distributed in 384 black well plates containing increasing concentrations of the different peptides in a fix volume of medium (without FCS).
# After an incubation of 30 min at 37° C. in an humid incubator in 5% CO2, the reaction was stopped by adding a fixed volume of a solution containing a lysis buffer and cAMP-D2 (cAMP labeled with the dye d2) and the anti cAMP antibody linked to Europium and used for cAMP detection.
# Readout of the experiment were performed on a fluorimeter allowing HTRF measurement. Activation curves were generated by plotting the intracellular value of cAMP versus log 10 of the compound concentration.
# The 50% activation concentration (EC50) was calculated by nonlinear regression using the sigmoidal dose-response (variable slope) equation with Prism 5 software.
# Emax % is determined as the maximal intracellular value of cAMP for test compound (upper limit of cAMP vs concentration curve) divided by the maximal intracellular value of cAMP for H2-relaxin determined in the same test occasion multiplied by 100. Emax %=100×[cAMPtest cpd]/[cAMPH2-RlX]
Emax [%],EC50 [nM],Compound
87,0.01,CCCCCCCCCCCCCCCCCC(=O)N[C@@H](CCC(=O)NCCOCCOCC(=O)N[C@@H](CCC(=O)N[C@@H](CCC(=O)NCCOCCOCC(=O)NCCOCCOCC(=O)NCCCC[C@H](NC(=O)[C@H](CCCCN)NC(=O)[C@H](CCCCN)NC(=O)[C@H](CCCNC(=N)N)NC(=O)C(C)(C)NC(=O)[C@H](CO)NC(=O)[C@H](Cc1c[nH]c2ccccc12)NC(=O)[C@@H](NC(=O)[C@H](CO)NC(=O)[C@H](CCCC)NC(=O)CNC(=O)[C@H](CCC(=O)O)NC(=O)C(C)(C)NC(=O)C(C)(C)NC(=O)[C@@H](NC(=O)[C@H](CCC(N)=O)NC(=O)[C@H](C)NC(=O)[C@H](CCCNC(=N)N)NC(=O)[C@@H](NC(=O)[C@H](CCCCN)NC(=O)[C@H](CCC(=O)O)NC(=O)[C@H](CCCNC(=N)N)NC(=O)CNC(=O)[C@H](CCC(=O)O)NC(=O)[C@H](CC(C)C)NC(C)=O)C(C)C)[C@@H](C)CC)[C@@H](C)O)C(N)=O)C(=O)O)C(=O)O)C(=O)O [compound 99] (Ac-LEGREKVRAQI[Aib][Aib]EG[Nle]STWS[Aib]RKKK([AEEA-AEEA-γGlu-γGlu-AEEA-γGlu-Stearoyl])-NH2)
100,,CCCCCCCCCCCCCCCCCC(=O)N[C@@H](CCC(=O)N[C@@H](CCC(=O)N[C@@H](CCC(=O)NCCOCCOCC(=O)NCCOCCOCC(=O)NCCOCCOCC(=O)NCCCC[C@H](NC(=O)[C@H](CCCCNC(C)=O)NC(=O)[C@H](CCCC[N+](C)(C)C)NC(=O)[C@H](CCCNC(=N)N)NC(=O)C(C)(C)NC(=O)[C@H](CO)NC(=O)[C@H](Cc1c[nH]c2ccccc12)NC(=O)[C@@H](NC(=O)[C@H](CO)NC(=O)[C@H](CCCC)NC(=O)CNC(=O)[C@H](CCC(=O)O)NC(=O)C(C)(C)NC(=O)C(C)(C)NC(=O)[C@@H](NC(=O)[C@H](CCCCNC(C)=O)NC(=O)[C@H](C)NC(=O)[C@H](CCCNC(=N)N)NC(=O)[C@@H](NC(=O)[C@H](CCCCN)NC(=O)[C@H](CCC(=O)O)NC(=O)[C@H](CCCNC(=N)N)NC(=O)CNC(=O)[C@H](CCC(=O)O)NC(=O)[C@H](CC(C)C)NC(C)=O)C(C)C)[C@@H](C)CC)[C@@H](C)O)C(N)=O)C(=O)O)C(=O)O)C(=O)O [compound 134] (Ac-LEGREKVRAK(Ac)I[Aib][Aib]EG[Nle]STWS[Aib]R[Lys(Me3)]K(Ac)K([AEEA-AEEA-AEEA-γGlu-γGlu-γGlu-Stearoyl])-NH2)
92,,CCCCCCCCCCCC(=O)N[C@@H](CCC(=O)N[C@@H](CCC(=O)N[C@@H](CCC(=O)NCCOCCOCC(=O)NCCOCCOCC(=O)NCCOCCOCC(=O)NCCCC[C@H](NC(=O)[C@H](CCCCNC(C)=O)NC(=O)[C@H](CCCCN)NC(=O)[C@H](CCCNC(=N)N)NC(=O)C(C)(C)NC(=O)[C@H](CO)NC(=O)[C@H](Cc1c[nH]c2ccccc12)NC(=O)[C@@H](NC(=O)[C@H](CO)NC(=O)[C@H](CCCC)NC(=O)CNC(=O)[C@H](CCC(=O)O)NC(=O)C(C)(C)NC(=O)C(C)(C)NC(=O)[C@@H](NC(=O)[C@H](CCCCNC(C)=O)NC(=O)[C@H](C)NC(=O)[C@H](CCCNC(=N)N)NC(=O)[C@@H](NC(=O)[C@H](CCCCN)NC(=O)[C@H](CCC(=O)O)NC(=O)[C@H](CCCNC(=N)N)NC(=O)CNC(=O)[C@H](CCC(=O)O)NC(=O)[C@H](CC(C)C)NC(C)=O)C(C)C)[C@@H](C)CC)[C@@H](C)O)C(N)=O)C(=O)O)C(=O)O)C(=O)O [compound 120] (Ac-LEGREKVRAK(Ac)I[Aib][Aib]EG[Nle]STWS[Aib]RKK(Ac)K([AEEA-AEEA-AEEA-γGlu-γGlu-γGlu-Lauroyl])-NH2)
75,0.4,CCCCCCCCCCCCCCCCCC(=O)N[C@@H](CCC(=O)N[C@@H](CCC(=O)N[C@@H](CCC(=O)NCCOCCOCC(=O)NCCOCCOCC(=O)NCCOCCOCC(=O)NCCCC[C@H](NC(=O)[C@H](CCCCN)NC(=O)[C@H](CCCNC(=N)N)NC(=O)C(C)(C)NC(=O)[C@H](CO)NC(=O)[C@H](Cc1cccc2ccccc12)NC(=O)[C@@H](NC(=O)[C@H](CO)NC(=O)[C@H](CCCC)NC(=O)CNC(=O)[C@H](CCC(=O)O)NC(=O)C(C)(C)NC(=O)C(C)(C)NC(=O)[C@@H](NC(=O)[C@H](CCCCNC(C)=O)NC(=O)[C@H](C)NC(=O)[C@H](CCCNC(=N)N)NC(=O)[C@@H](NC(=O)[C@H](CCCCN)NC(=O)[C@H](CCC(=O)O)NC(=O)[C@H](CCCNC(=N)N)NC(=O)CNC(=O)[C@H](CCC(=O)O)NC(=O)[C@H](CC(C)C)NC(C)=O)C(C)C)[C@@H](C)CC)[C@@H](C)O)C(N)=O)C(=O)O)C(=O)O)C(=O)O [compound 79] (Ac-LEGREKVRAK(Ac)I[Aib][Aib]EG[Nle]ST[1Nal]S[Aib]RKK([AEEA-AEEA-AEEA-γGlu-γGlu-γGlu-Stearoyl])-NH2)

# Second part, the molecule before the results:
Compound,Emax [%],EC50 [nM]
CCCCCCCCCCCCCCCC(=O)N[C@@H](CCC(=O)N[C@@H](CCC(=O)N[C@@H](CCC(=O)NCCCC[C@H](NC(=O)COCCOCCNC(=O)COCCOCCNC(=O)COCCOCCNC(=O)COCCOCCNC(=O)[C@H](CCCCNC(C)=O)NC(=O)[C@H](C)NC(=O)[C@H](CCCNC(=N)N)NC(=O)[C@](C)(CCCCN)NC(=O)[C@H](CO)NC(=O)[C@H](Cc1ccccc1)NC(=O)[C@@H](NC(=O)[C@H](CO)NC(=O)[C@H](CCCC)NC(=O)CNC(=O)[C@H](CCC(=O)O)NC(=O)C(C)(C)NC(=O)C(C)(C)NC(=O)[C@@H](NC(=O)[C@H](CCCCNC(C)=O)NC(=O)[C@H](C)NC(=O)[C@H](CCCNC(=N)N)NC(=O)[C@@H](NC(=O)[C@H](CCCCN)NC(=O)[C@H](CCC(=O)O)NC(=O)[C@H](CCCNC(=N)N)NC(=O)CNC(=O)[C@H](CCC(=O)O)NC(=O)[C@H](CC(C)C)NC(C)=O)C(C)C)[C@@H](C)CC)[C@@H](C)O)C(N)=O)C(=O)O)C(=O)O)C(=O)O [compound 192] (Ac-LEGREKVRAK(Ac)I[Aib][Aib]EG[Nle]STFS[αMeK]RAK(Ac)[AEEA][AEEA][AEEA][AEEA]K([γGlu-γGlu-γGlu-Palmitoyl])-NH2),91,
CCCCCCCCCCCCCCCC(=O)N[C@@H](CCC(=O)N[C@@H](CCC(=O)N[C@@H](CCC(=O)NCCCC[C@H](NC(=O)CCOCCOCCOCCOCCOCCOCCOCCOCCOCCOCCOCCOCCNC(=O)[C@H](CCCCNC(C)=O)NC(=O)[C@H](CCCCN)NC(=O)[C@H](CCCNC(=N)N)NC(=O)C(C)(C)NC(=O)[C@H](CO)NC(=O)[C@H](Cc1c[nH]c2ccccc12)NC(=O)[C@@H](NC(=O)[C@H](CO)NC(=O)[C@H](CCCC)NC(=O)CNC(=O)[C@H](CCC(=O)O)NC(=O)C(C)(C)NC(=O)C(C)(C)NC(=O)[C@@H](NC(=O)[C@H](CCC(N)=O)NC(=O)C(C)(C)NC(=O)[C@H](CCCNC(=N)N)NC(=O)[C@@H](NC(=O)[C@H](CCCCN)NC(=O)[C@H](CCC(=O)O)NC(=O)[C@H](CCCNC(=N)N)NC(=O)CNC(=O)[C@H](CCC(=O)O)NC(=O)[C@H](CC(C)C)NC(C)=O)C(C)C)[C@@H](C)CC)[C@@H](C)O)C(N)=O)C(=O)O)C(=O)O)C(=O)O [compound 28] (Ac-LEGREKVR[Aib]QI[Aib][Aib]EG[Nle]STWS[Aib]RKK(Ac)[PEG12]K([γGlu-γGlu-γGlu-Palmitoyl])-NH2),78,
CCCCCCCCCCCCCCCCCC(=O)N[C@@H](CCC(=O)N[C@@H](CCC(=O)N[C@@H](CCC(=O)NCCCOCCOCCOCCCNC(=O)COCC(=O)NCCCC[C@H](NC(=O)[C@H](CCCCNC(C)=O)NC(=O)[C@H](CCCCN)NC(=O)[C@H](CCCNC(=N)N)NC(=O)C(C)(C)NC(=O)[C@H](CO)NC(=O)[C@H](Cc1c[nH]c2ccccc12)NC(=O)[C@@H](NC(=O)[C@H](CO)NC(=O)[C@H](CCCC)NC(=O)CNC(=O)[C@H](CCC(=O)O)NC(=O)C(C)(C)NC(=O)C(C)(C)NC(=O)[C@@H](NC(=O)[C@H](CCCCNC(C)=O)NC(=O)[C@H](C)NC(=O)[C@H](CCCNC(=N)N)NC(=O)[C@@H](NC(=O)[C@H](CCCCN)NC(=O)[C@H](CCC(=O)O)NC(=O)[C@H](CCCNC(=N)N)NC(=O)CNC(=O)[C@H](CCC(=O)O)NC(=O)[C@H](CC(C)C)NC(C)=O)C(C)C)[C@@H](C)CC)[C@@H](C)O)C(N)=O)C(=O)O)C(=O)O)C(=O)O [compound 94] (Ac-LEGREKVRAK(Ac)I[Aib][Aib]EG[Nle]STWS[Aib]RKK(Ac)K(X16)-NH2),90,
